Reference: paper PMC8895377, “In Vivo Targeting Replication Protein A for Cancer Therapy” (Frontiers in Oncology, 2022)

Legend:
[1] = Intrinsic clearance and half-life in mouse microsomes; type: in vitro ADME
Description: (§1) Toward the goal to identify efficacious and safe RPAi 329 treatment regimens, we conducted single-agent screening in two lung cancer cell line-derived xenograft models. […] Having optimized cellular uptake and solubility via the addition of the propyl morpholino in 329 and 2004, we sought to determine how these modifications impact in vivo anticancer activity using two NSCLC models, A549 adenocarcinoma and H460 large cell carcinoma. […] Analyses of intrinsic clearance and half-life were conducted in mouse and rat microsomes ( Table 1 ). […] These values are less than the rate of 48, which is considered rapid clearance. In rat microsomes, rates of ~64 were obtained for 329 and are less than the rapid rate of 71.

[2] = Intrinsic clearance and half-life in rat microsomes; type: in vitro ADME; conditions: for microsomal CLint: rat, microsomes
Description: as §1

## CCOc1ccc2cc(C3CC(c4ccc(I)cc4)=NN3C(=O)CCCC(=O)NCCCN3CCOCC3)c(Cl)nc2c1 (stereo not drawn) [compound 329]
[1]; Mouse microsomes
  microsomal CLint: 31.7 µL/min/mg
[1]; Mouse microsomes, read-out: t1/2
  half-life: 43.9 min
[1]; mouse, rat, microsomes, in mice and rats, read-out: half-lives
  half-life: 20 to 40 min
[2]; Rat microsomes
  half-life: 21.7 min
[2]; Rat microsomes, read-out: CLint
  microsomal CLint: 63.8 µL/min/mg
[2]; rat microsomes, read-out: rate of clearance
  microsomal CLint: ~64 µL/min/mg
